From patent publication US11149040B2, “Fused triazole agonists of the APJ receptor” (AMGEN INC., priority 2017, dated 2021) come the findings set out here.

A word on the EC50: it is the concentration that produces a half-maximal response.

Where only a bound is given, the exact number is not on record here.

human APJ receptor, sequence (P35414 whole entry): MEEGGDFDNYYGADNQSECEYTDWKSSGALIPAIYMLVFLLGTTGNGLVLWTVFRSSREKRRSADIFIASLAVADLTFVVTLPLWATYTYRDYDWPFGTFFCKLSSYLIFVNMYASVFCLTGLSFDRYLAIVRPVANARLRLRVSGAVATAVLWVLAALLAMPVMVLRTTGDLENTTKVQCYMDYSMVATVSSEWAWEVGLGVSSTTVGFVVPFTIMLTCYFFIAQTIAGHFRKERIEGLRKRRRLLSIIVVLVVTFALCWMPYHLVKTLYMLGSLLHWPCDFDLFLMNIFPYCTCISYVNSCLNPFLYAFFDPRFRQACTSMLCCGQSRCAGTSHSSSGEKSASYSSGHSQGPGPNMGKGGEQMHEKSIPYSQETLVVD

The target in one experiment is human APJ receptor (Homo sapiens (Human), UniProt P35414). The experiment can be described thus: [35S]GTPγS binding assay on membranes from CHO cells stably expressing human APJ receptor. Format: biochemical. The settings on record: read-out: Activity hAPJ SPA EC50 IP. In a few lines:
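Membranes from CHO cells stably expressing FLAG-tagged human APJ; assay buffer GDP, MgCl2 and NaCl levels optimised beforehand. Incubation 90 min at RT, imager read-out. EC50 from non-linear regression on means of several independent experiments.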
For orientation: GTPγS resists hydrolysis and so accumulates on activated G proteins.
`COCC1COc2ccc(OC)cc2-c2nnc(NS(=O)(=O)[C@@H](C)[C@@H](OC(C)C)c3ncc(C)cn3)n21` (single isomer, unassigned) [Example 152.0, (1S,2S)-N-((5R)-10-methoxy-5-(methoxymethyl)-5,6-dihydro[1,2,4]triazolo[4,3-d][1,4]benzoxazepin-3-yl)-1-(5-methyl-2-pyrimidinyl)-1-(2-propanyloxy)-2-propanesulfonamide or (1S,2S)-N-((5S)-10-methoxy-5-(methoxymethyl)-5,6-dihydro[1,2,4]triazolo[4,3-d][1,4]benzoxazepin-3-yl)-1-(5-methyl-2-pyrimidinyl)-1-(2-propanyloxy)-2-propanesulfonamide]: the half-maximal effective concentration (EC50) worked out at 37 nM.

Take `COCC1COc2ccc(OC)cc2-c2nnc(NS(=O)(=O)[C@@H](C)[C@@H](OC(C)C)c3ncc(C)cn3)n21` (single isomer, unassigned) [Example 153.0, (1S,2S)-N-((5R)-10-methoxy-5-(methoxymethyl)-5,6-dihydro[1,2,4]triazolo[4,3-d][1,4]benzoxazepin-3-yl)-1-(5-methyl-2-pyrimidinyl)-1-(2-propanyloxy)-2-propanesulfonamide or (1S,2S)-N-((5S)-10-methoxy-5-(methoxymethyl)-5,6-dihydro[1,2,4]triazolo[4,3-d][1,4]benzoxazepin-3-yl)-1-(5-methyl-2-pyrimidinyl)-1-(2-propanyloxy)-2-propanesulfonamide]: the EC50 was determined as 250 nM.

Regarding `Cc1cnc([C@H](OC(C)C)[C@H](C)S(=O)(=O)Nc2nnc3n2[C@H](CO)OCc2ccc(C(F)(F)F)cc2-3)nc1` (single isomer, unassigned) [Example 156.0, (1S,2S)-N-((R)-5-(hydroxymethyl)-10-(trifluoromethyl)-5,6-dihydrobenzo[f][1,2,4]triazolo[4,3-d][1,4]oxazepin-3-yl)-1-isopropoxy-1-(5-methylpyrimidin-2-yl)propane-2-sulfonamide or (1S,2S)-N-((S)-5-(hydroxymethyl)-10-(trifluoromethyl)-5,6 dihydrobenzo[f][1,2,4]triazolo[4,3-d][1,4]oxazepin-3-yl)-1-isopropoxy-1-(5-methylpyrimidin-2-yl)propane-2-snlfonamide], the concentration giving a half-maximal response (EC50) is 2110 nM.

Regarding `Cc1cnc([C@H](OC(C)C)[C@H](C)S(=O)(=O)Nc2nnc3n2C(CO)COc2ccc(C(F)(F)F)cc2-3)nc1` (single isomer, unassigned) [Example 157.0, (1S,2S)-N-((R)-5-(hydroxymethyl)-10-(trifluoromethyl)-5,6-dihydrobenzo[f][1,2,4]triazolo[4,3-d][1,4]oxazepin-3-yl)-1-isopropoxy-1-(5-methylpyrimidin-2-yl)propane-2-sulfonamide or (1S,2S)-N-((S)-5-(hydroxymethyl)-10-(trifluoromethyl)-5,6-dihydrobenzo[f][1,2,4]triazolo[4,3-d][1,4]oxazepin-3-yl)-1-isopropoxy-1-(5-methylpyrimidin-2-yl)propane-2-sulfonamide], the concentration for a half-maximal effect (EC50) was above 12500 nM.

For the compound `COC[C@@H]1COc2ccc(OC)nc2-c2nnc(NS(=O)(=O)[C@@H](C)[C@H](C)c3ncc(OC)cn3)n21` (stereo in doubt) [Example 3.0, (2S,3R)-N-((5R)-10-methoxy-5-(methoxymethyl)-5,6-dihydropyrido[2,3-f][1,2,4]triazolo[4,3-d][1,4]oxazepin-3-yl)-3-(5-methoxy-2-pyrimidinyl)-2-butanesulfonamide and (2S,3R)-N-((5S)-10-methoxy-5-(methoxymethyl)-5,6-dihydropyrido[2,3-f][1,2,4]traizolo[4,3-d][1,4]oxazepin-3-yl)-3-(5-methoxy-2-pyrimidinyl)-2-butanesulfonamide], the concentration for a half-maximal effect (EC50) came to 490 nM.

As to `COC[C@@H]1COc2ccc(F)cc2-c2nnc(NS(=O)(=O)[C@@H](C)[C@H](OC)c3ncc(C)cn3)n21` (stereo in doubt) [Example 24.0, (1R,2S)-N-((5R)-10-fluoro-5-(methoxymethyl)-5,6-dihydro[1,2,4]traizolo[4,3-d][1,4]benzoxazepin-3-yl)-1-methoxy-1-(5-methyl-2-pyrimidinyl)-2-propanesulfonamide and (1R,2S)-N-((5S)-10-fluoro-5-(methoxymethyl)-5,6-dihydro[1,2,4]triazolo[4,3-d][1,4]benzoxazepin-3-yl)-1-methoxy-1-(5-methyl-2-pyrimidinyl)-2-propanesulfonamide], the concentration giving a half-maximal response (EC50) was found to be 260 nM.

As for `COC[C@@H]1COc2cnccc2-c2nnc(NS(=O)(=O)[C@@H](C)[C@@H](OC(C)C)c3ncc(C)cn3)n21` (stereo in doubt) [Example 43.0, (1S,2S)-N-((5R)-5-(methoxymethyl)-5,6-dihydropyrido[4,3-f][1,2,4]triazolo[4,3-d][1,4]oxazepin-3-yl)-1-(5-methyl-2-pyrimidinyl)-1-(2-propanyloxy)-2-propanesulfonamide and (1S,2S)-N-((5S)-5-(methoxymethyl)-5,6-dihydropyrido[4,3-f][1,2,4]traizolo[4,3-d][1,4]oxazepin-3-yl)-1-(5-methyl-2-pyrimidinyl)-1-(2-propanyloxy)-2-propanesulfonamide], the concentration for a half-maximal effect (EC50) is 1200 nM.

Regarding `C=C1COc2ccccc2-c2nnc(NS(=O)(=O)[C@@H](C)[C@@H](OC(C)C)c3ncc(C)cn3)n21` [Example 17.0, (1S,2S)-N-(5-Methylidene-5,6-dihydro[1,2,4]triazolo[4,3-d][1,4]benzoxazepin-3-yl)-1-(5-methyl-2-pyrimidinyl)-1-(2-propanyloxy)-2-propanesulfonamide], the EC50 came to 1000 nM.

In the case of `C=C1COc2ncccc2-c2nnc(NS(=O)(=O)[C@@H](C)[C@@H](OC(C)C)c3ncc(Cl)cn3)n21` [Example 60.0, (1S,2S)-1-(5-chloro-2-pyrimidinyl)-N-(5-methylidene-5,6-dihydropyrido[3,2-f][1,2,4]triazolo[4,3-d][1,4]oxazepin-3-yl)-1-(2-propanyloxy)-2-propanesulfonamide], the EC50 was 850 nM.

In another experiment the test system is heart failure rats. Kind of experiment: Cardiac contractility in vivo in heart failure rat model. The settings on record: alone, acute settings. The protocol:
Evidence for Improvement in Cardiac Contractility In Vivo in Heart Failure Rat Model Based on ex vivo findings in isolated heart assay, APJ agonists are dosed in vivo to investigate the translation of cardiac contractility in in vivo settings. Male Lewis rats (Charles River, USA) at 2-3 months of age are used for the study. Heart failure is induced by permanent ligation of the left descending coronary artery which results in injury to the heart with an ejection fraction of <35%. APJ agonists are administered dose dependently acutely for a period of 30 min. Administration of APJ agonists lead to an increase in cardiac contractility as measured by dP/dtmax (derivative of left ventricular pressure).
As for `C[C@H](CS)C(=O)N1CCC[C@H]1C(=O)O` [Captopril, captopril], the “improvement in contractility or ejection fraction” value is on record as “does not show a marked improvement in contractility or ejection fraction acutely”.
